Measured values published in patent US12209252B2, “Transduction buffer” (Koninklijke Nederlandse Akademie van Wetenschappen, priority 2015, dated 2025).

How the values were obtained:
[1] = system: KBM7 cells carrying an out-of-frame tdTomato reporter; assay: Effect of carbohydrate supplements on Cas9/sgRNA transduction (tdTomato reporter); type: cell-based; conditions: carbohydrate 0.8% w/v, 40 minutes, 327 mM NaCl, 200 mM GABA, read two days after
Method: (§1) KBM7 cells carrying an out-of-frame tdTomato reporter were transduced for 40 minutes with recombinant Cas9 protein and sgRNA targeting the out-of-frame region in the tdTomato reporter. Transductions were carried out in 1× iTOP transduction buffer, supplemented with 327 mM NaCl and 200 mM GABA. Indicated carbohydrates were added at 0.8% w/v final concentration. Two days after transduction, tdTomato fluorescence was determined by flow cytometry analysis.
as §1, with “The effect of various carbohydrates on transduction efficiency was tested in the iTOP buffer. KBM7” for “KBM7”, “carbohydrates (sorbitol, lactulose, sucrose, trehalose and myo-inositol)” for “carbohydrates”, “analysis. Higher levels of tdTomato fluorescence were indicative of greater transduction efficiency.” for “analysis.”

[2] = 700 mOsm/Kg, non-salt compound alone; previously tested (WO2015/028969); cited from earlier work
MEFs = assay: BrdU incorporation 24 hrs after beta-lactamase transduction; type: cell-based, mouse; conditions: see FIGS. 6A-6D
Method: Third column: Relative β-lactamase protein transduction activity; Fourth column: Relative BrdU incorporation 24 hrs after β-lactamase transduction. MEFs were transduced for 3 hours with 1 μM β-lactamase protein at a NaCl adjusted osmolality of 700 mOsm/Kg in transduction buffer containing 30 mM of Glycerol and 15 mM of Glycine and 25 mM of the indicated transduction compounds. β-lactamase incorporation of the reference compound (NDSB201, #01) was set at 100%. Open circles indicate relative BrdU incorporation by the transduced cells. BrdU incorporation of untransduced cells was set at 100% and BrdU incorporation of mitomycin C-treated cells was set at 0%.

[3] = system: sodium-hydrogen antiporter (Nhe) proteins; assay: Inhibition of protein transduction by Na+/H+ exchange inhibitors; type: cell-based
Source text: Without wishing to be bound by theory, the inventors hypothesise that activation of such Nhe transporters leads to activation of the macropinocytosis pathway, which is the first step in the transduction process. Thus, in some embodiments, the salt is any salt able to bind to and/or activate a sodium/hydrogen (Na+/H+) transporter, such as an Nhe transporter, for example an Nhe1 transporter. Nhe1 is a ubiquitous membrane-bound enzyme involved in volume- and pH-regulation of vertebrate cells.

SMILES	transduction efficiency (tdTomato fluorescence, in words) [1]	induction of protein transduction [2]	further results
OC[C@H]1O[C@@H](O[C@@H]2[C@@H](CO)OC(O)(CO)[C@H]2O)[C@H](O)[C@@H](O)[C@H]1O (mixture of isomers) [lactulose]	closely followed	failed to induce protein transduction	
NCCCC(=O)O [#20]			cell viability / proliferation / survival (in words) (MEFs): particularly good cell survival rates
CN(C)c1nc(N)c(C(=O)N=C(N)N)nc1Cl [DMA]			inhibition of protein transduction [3]: strongly inhibited
CCN(c1nc(N)c(C(=O)NC(=N)N)nc1Cl)C(C)C [EIPA]			inhibition of protein transduction [3]: strongly inhibited
OC[C@@H](O)[C@@H](O)[C@H](O)[C@H](O)CO [mannitol]		failed to induce protein transduction	
O[C@H]1[C@H](O)[C@@H](O)[C@H](O)[C@@H](O)[C@H]1O [myo-inositol]	closely followed		
OC[C@@H](O)[C@@H](O)[C@H](O)[C@@H](O)CO [sorbitol]	greatest improvement	failed to induce protein transduction	
OC[C@H]1O[C@@](CO)(O[C@H]2O[C@H](CO)[C@@H](O)[C@H](O)[C@H]2O)[C@@H](O)[C@@H]1O [sucrose]	improve transduction efficiency	failed to induce protein transduction	
OC[C@H]1O[C@H](O[C@H]2O[C@H](CO)[C@@H](O)[C@H](O)[C@H]2O)[C@H](O)[C@@H](O)[C@@H]1O [trehalose]	greatest improvement		
